Experimental data taken from patent US9861612B2 (priority 2014, dated 2018).
Where two headings read alike, the source gives them in different places.

Experiments:
[1] = test system: TH17 cell differentiation (human CD4+CCR6+ T cells); assay: Human Th17 cell differentiation assay (IL-17A ELISA); type: cell-based; settings: 96 h, IL-17A in extracellular media by ELISA, 4 days, mean, read-out: Inhibition of TH17 cell differentiation-Mean IC50
[2] = target: RORγ ligand binding domain (Homo sapiens (Human), UniProt P51449); assay: biochemical; type: biochemical
Method: Various concentrations of test ligands in 0.1 microlitres DMSO were dispensed to assay plates using an Labcyte Echo acoustic dispenser. Two pre-mixes were prepared and incubated for 1 hr at room temp in the dark.

RORγ ligand binding domain, sequence (P51449 whole entry, looked up, the tested form may be a part): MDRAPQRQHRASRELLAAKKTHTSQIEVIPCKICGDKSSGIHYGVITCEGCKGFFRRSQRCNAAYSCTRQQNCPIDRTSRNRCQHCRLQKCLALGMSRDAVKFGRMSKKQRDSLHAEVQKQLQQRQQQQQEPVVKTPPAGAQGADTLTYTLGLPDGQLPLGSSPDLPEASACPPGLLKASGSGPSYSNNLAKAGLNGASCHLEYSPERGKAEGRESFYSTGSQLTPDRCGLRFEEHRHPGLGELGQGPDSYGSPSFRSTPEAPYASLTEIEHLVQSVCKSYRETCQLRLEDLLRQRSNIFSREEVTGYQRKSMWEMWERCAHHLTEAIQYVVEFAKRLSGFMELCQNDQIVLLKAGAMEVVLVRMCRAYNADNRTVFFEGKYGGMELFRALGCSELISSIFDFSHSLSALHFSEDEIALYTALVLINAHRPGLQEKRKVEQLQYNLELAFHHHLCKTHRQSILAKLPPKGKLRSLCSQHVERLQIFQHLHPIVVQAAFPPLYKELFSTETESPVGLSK

SMILES | IC50 [1] | IC50 ([2]; read-out: RORγ FRET-Mean IC50) | IC50 [2]
O=C(O)c1ccc(-n2cc(C(=O)c3c(Cl)cccc3C(F)(F)F)c3ccccc32)cc1 [Comparator 1, 4-[3-[2-chloro-6-(trifluoromethyl)benzoyl]-1H-indol-1-yl]benzoic acid, reference compound] | 45.3 nM | – | –
O=C(O)c1ccc(-n2cc(C(=O)c3c(F)cccc3C(F)(F)F)c3cccc(F)c32)cc1 [Comparator 2, 4-[7-fluoro-3-[2-fluoro-6-(trifluoromethyl)benzoyl]-1-H-indol-1-yl]benzoic acid, reference compound] | 48.2 nM | 61.9 nM | –
O=C(O)c1ccc(-n2cc(C(=O)c3c(F)cccc3C(F)(F)F)c3cccc(F)c32)c(F)c1 [Comparator 5, 3-fluoro-4-[7-fluoro-3-[2-fluoro-6-(trifluoromethyl)benzoyl]-1H-indol-1-yl]benzoic acid, reference compound] | 47 nM | 111 nM | –
O=C(O)c1ccc(-n2cc(C(=O)c3c(Cl)cccc3C(F)(F)F)c3cccc(F)c32)cc1O [Compound 2, 4-[3-[2-chloro-6-(trifluoromethyl)benzoyl]-7-fluoro-indol-1-yl]-2-hydroxy-benzoic acid] | 12.6 nM | 17.9 nM | –
O=C(O)c1ccc(-n2cc(C(=O)c3c(Cl)cccc3C(F)(F)F)c3cccc(F)c32)c(F)c1 [Compound 3, 4-[3-[2-chloro-6-(trifluoromethyl)benzoyl]-7-fluoro-indol-1-yl]-3-fluoro-benzoic acid] | 15 nM | 37.9 nM | –
O=C(O)c1ccc(-n2cc(C(=O)c3c(Cl)cccc3C3CC3)c3cccc(F)c32)c(F)c1 [Compound 4, 4-[3-(2-chloro-6-cyclopropyl-benzoyl)-7-fluoro-1H-indol-1-yl]-3-fluoro-benzoic acid] | 31.9 nM | – | 42.9 nM
